Source: patent publication US20250304952A1, “DNA ELEMENT RESPONSIVE TO EXTRACHROMOSOMAL DNA IN CANCER CELLS” (The Board of Trustees of the Leland Stanford Junior …, priority 2021, published 2025)

Assays:
Format in all cases: cell-based, human
[1] = tested on: MYC mRNA in COLO320-DM cells; test: MYC RNA measured by RT-qPCR in COLO320-DM; settings: 500 nM, 6 hours
Experimental: Cells were then treated for 6 hours with 500 nM JQ1 in DMSO unless otherwise indicated (Sigma-Aldrich SML1524) or an equivalent volume of DMSO.
RNA was extracted using RNeasy Plus mini Kit (QIAGEN 74136). Purified RNA was quantified by Nanodrop (Thermo Fisher). For RT-qPCR, 50 ng of RNA, 1× Brilliant II qRT-PCR mastermix with 1 μL RT/RNase block (Agilent 600825), and 200 nM forward and reverse primer were used. Each Ct value was measured using Lightcycler 480 (Roche) and each mean dCt was averaged from duplicate qRT-PCR reaction and performed in biological triplicate. Relative MYC RNA level (RT-qPCR primers MYC_exon3_fw and MYC_exon3_rv) was calculated by ddCt method compared to 18S and GAPDH controls (RT-qPCR primers GAPDH_fw, GAPDH_rv, 18S_fw, 18S_rv). P values were calculated using a Student's t-test by comparing the relative fold change of biological triplicates.
Approximately 0.6×10^6 COLO320-DM or COLO-320-HSR cells were plated in 6 well plates and cultured under standard conditions for 24 hours. Cells were then treated for 6 hours with one of the following: 500 nM JQ1 (Sigma-Aldrich SML1524), 500 nM MS645 (Sigma Aldrich SML2549), 1 μM THZ-1 (Selleck chemicals S7549), 20 μM SGC-SCP30 (Selleck chemicals S7256), 10 μM OICR-9429 (Selleck chemicals S7833), 50 μM MI-3 (Selleck chemicals S7619), 2 μM trichostatin A (Selleck chemicals S1045), or DMSO. […]

[2] = tested on: ecDNA hubs in TetO-GFP COLO320-DM cells; test: Live cell imaging of TetR-eGFP-labeled ecDNAs through cell division; settings: 500 nM JQ1
Text: sgRNA was designed by E-CRISP (http://www.e-crisp.org/E-CRISP/designcrispr.html) targeting ˜0.5 kb upstream of MYC transcription start site or N-terminal BRD4 gene. The sgRNA was cloned into the modified pX330 (Addgene, Cat #42230) construct co-expressing wild type SpCas9 and a PGK-Venus cassette. ˜500 bp homology arms were PCR amplified from COLO320-DM cells and cloned into a pUC19 donor vector together with ˜96 copies of TetO array and a blasticidin selection cassette
(Addgene #118713) for ecDNA-TetO array or with HaloTag (Addgene #139747) for BRD4. 2 μg of the donor vector and 1 μg of the sgRNA vector were transfected into COLO320-DM cells by lipofectamine 3000. For ecDNA-TetO array, blasticidin (10 ug/ml) selection was applied after 7 days. For BRD4-HaloTag knock-in, 100 nM HaloTag ligand JF549 (a kind gift from Luke Lavis's lab at Janelia Research Campus) was applied to the cells followed by washing and FACS sorting. Individual clones were selected, genotyped by PCR and verified by Sanger sequencing before being tested for imaging. […]
To monitor ecDNA dynamics within the nucleus, the COLO320-DM TetO-eGFP cell line was transfected with the PiggyBac vector expressing H2B-SNAPf and the super PiggyBac transposase (2:1 ratio) as described previously51. […] TetO labeled ecDNA was similarly analyzed as described in previous DNA/RNA FISH section. […]

[3] = tested on: covalently-linked MYC copies in COLO320-HSR; test: Interphase DNA FISH of chromosomal MYC amplicon (HSR), autocorrelation g(r); settings: 500 nM, 6 hours

Cc1sc2c(c1C)C(c1ccc(Cl)cc1)=N[C@@H](CC(=O)OC(C)(C)C)c1nnc(C)n1-2 [JQ1]
MYC mRNA level [1]: preferentially lowered | ecDNA hub assembly following mitosis [2]: blocked | spatial distribution of covalently-linked MYC copies [3]: did not alter
